Patent US9926369B2, “Methods for treating hepatocellular cancer by administering an anti-Ang-2 antibody” (Regeneron Pharmaceuticals, Inc., priority 2009, dated 2018)

Columns and labels:
[1] = target: Dimeric Human Ang-2FD-mFc (Homo sapiens, UniProt O15123); experiment: Cross-species SPR binding at 25° C. or 37° C., human Ang-2FD-mFc
Method: Additional binding experiments were conducted using selected anti-Ang-2 antibodies at two different temperatures to further assess cross-species affinity. Each selected antibody or control construct was captured at a flow rate of 40 μL/min for 1 minute on a goat anti-human kappa polyclonal antibody surface created through direct chemical coupling to a BIACORE™ chip to form a captured antibody surface. Human, monkey and mouse Ang-2FD-Fc at a concentration of 25 nM or 0.78 nM was injected over the captured antibody surface at a flowrate of 60 μL/min for 3 minutes, and antigen-antibody dissociation was monitored in real time for 20 minutes at either 25° C. or 37° C.

hAng-2FD-mFc I-434-M = target: T1, hAng-2FD-mFc I-434-M (Homo sapiens, UniProt O15123, I434M); experiment: Ang-2FD-mFc point mutant binding experiment (SPR), I-434-M; details: I-434-M mutant captured; antibody/peptibody at 100 nM; 25° C.
T1 construct: made in house
T1 sequence (O15123 with tags, fused parts or gaps I434M): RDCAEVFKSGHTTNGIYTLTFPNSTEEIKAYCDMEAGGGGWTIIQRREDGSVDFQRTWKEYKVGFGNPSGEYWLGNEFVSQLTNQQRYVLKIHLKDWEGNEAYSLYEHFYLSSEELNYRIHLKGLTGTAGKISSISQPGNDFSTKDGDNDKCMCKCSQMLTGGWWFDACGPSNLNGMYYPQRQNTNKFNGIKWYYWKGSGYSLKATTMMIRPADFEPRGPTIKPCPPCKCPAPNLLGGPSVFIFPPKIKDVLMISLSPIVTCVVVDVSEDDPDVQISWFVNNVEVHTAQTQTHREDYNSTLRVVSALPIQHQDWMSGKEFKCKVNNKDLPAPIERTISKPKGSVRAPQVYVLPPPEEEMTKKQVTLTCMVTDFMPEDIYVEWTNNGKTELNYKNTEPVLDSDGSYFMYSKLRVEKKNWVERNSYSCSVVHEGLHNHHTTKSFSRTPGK
Source text: To further characterize binding between hAng2 and anti-hAng2 mAbs of the invention, seven variant hAng2-FD-mFc proteins were generated, each containing a single point mutation. Amino acids selected for mutation were based on the difference in sequence between hAng-2 and hAng-1 in the region that interacts with hTie-2 (FIG. 1). In particular, amino acids within the fibrinogen-like domain (FD) of Ang-2 which are believed to interact with Tie-2 based on crystal structure analysis, but which differ from the corresponding amino acid in Ang-1, were individually mutated to the corresponding hAng-1 residue. The results of this example indicate the amino acid residues of hAng-2 with which the Ang-2 preferential binding antibodies interact.
In this experiment, each of the seven hAng-2FD-mFc mutant proteins were captured (˜147-283 RU) on an anti-mouse-Fc surface created through direct chemical coupling to a BIACORE™ chip. Then each Ang-2 antibody (or peptibody, as the case may be) at 100 nM was injected over the captured mFc-tagged hAng-2FD protein surface at a flowrate of 50 μl/min for 180 sec, and the dissociation of variant hAng2-FD-mFc and antibody was monitored in real time for 20 min at 25° C.

[2] = tested on: Ang-1-mediated Tie-2 phosphorylation in EA.hy926 cells; experiment: Inhibition of Ang-1-mediated Tie-2 phosphorylation in EA.hy926 cells; format: cell-based, human; details: up to 400 nM
Method: EA.hy926 cells (Edgell et al., Proc. Natl. Acad. Sci. USA 80:3734-3737 (1983)) were plated at 5×10^6 cells per 10 cm dish in 10 ml DMEM with 10% FBS, HAT, L-glutamine and penicillin/streptomycin. After 24 hours, cells were serum-starved for 1 hour in 10 ml DMEM+1 mg/ml BSA. Cells were then stimulated for 10 minutes with 500 ng/ml of recombinant human Ang-1 (R&D Systems) in the presence of either an irrelevant isotype control antibody (“9E10”) at 400 nM or the anti-Ang-2 antibody H1H685P, or control agents (Control I, Control II, Control IV, or Control V) at concentrations ranging from 10 to 400 nM.
Following incubation, cells were lysed and Tie-2 was immunoprecipitated as described by Daly et al., Proc. Natl. Acad. Sci. USA 103:15491-15496 (2006). Immune complexes were collected by incubation with protein A/G beads (Santa Cruz Biotechnology, Santa Cruz, Calif.) for 60 min. Beads were washed with cold lysis buffer and bound proteins were eluted by heating in SDS sample buffer. Samples were then subjected to Western blot analysis with monoclonal antibodies against Tie-2 or phosphotyrosine (clone 4G10, Millipore, Billerica, Mass.).
Signals were detected using HRP-conjugated secondary antibodies and ECL reagents (GE Healthcare, Piscataway, N.J.). X-ray films were scanned and the phospho-Tie-2 and Tie-2 signals were quantified using ImageJ software. […]

[3] = tested on: PC3 (Human Prostate Cancer Cell Line) tumors; experiment: PC3 mouse tumor model; format: in vivo, NCr nude mice
Method: Briefly, 5×10^6 PC3 cells in 100 μl of growth factor-reduced Matrigel (BD Biosciences) were injected subcutaneously into the flanks of 6-8 week old male NCr nude mice (Taconic, Hudson, N.Y.). After tumor volumes reached an average of about 200 mm^3, mice were randomized into groups for treatment. […] Tumor volumes were measured twice per week over the course of the experiment and tumor weights were measured upon excision of tumors at the conclusion of the experiment. Averages (mean+/−standard deviation) of tumor weight and growth were calculated for each treatment group. Percent decrease of tumor weight and growth were calculated from comparison to Fc protein measurements.

[4] = PC3, 2.5 mg/kg subcutaneous twice per week
[5] = PC3, 10 mg/kg intraperitoneal twice per week, vs Fc protein
[6] = PC3, 12.5 mg/kg subcutaneous twice per week
[7] = PC3, 25 mg/kg subcutaneous twice per week

Sequence of Dimeric Human Ang-2FD-mFc (O15123 with tags, fused parts or gaps): as the sequence (O15123 with tags, fused parts or gaps I434M) above, with M153I counted along it

H1H685P: human anti-Ang-2 antibody, HCVR/LCVR SEQ ID NOs 18/20; also referred to as mAb1 [Antibody H1H685P]
Kd ([1]; 25° C.): 0.0117 nM
Kd ([1]; 37° C.): 0.027 nM
Kd (hAng-2FD-mFc I-434-M): 0.0179 nM
RU (hAng-2FD-mFc I-434-M): 235.95 RU
Inhibitory effect on Ang-1-induced Tie-2 phosphorylation (in words) [2]: no significant inhibitory effect
% Decrease in Tumor Growth [3, 4]: 70%
Avg Tumor Growth [3, 4]: 308 ± 274 mm^3
Avg Tumor Weight ([3]; PC3, 10 mg/kg intraperitoneal twice per week, approximately three weeks, mean ± SD): 0.44 ± 0.12 g
Avg Tumor Growth ([3]; PC3, 10 mg/kg intraperitoneal twice per week, mean ± SD): 305 ± 143 mm^3
% Decrease in Tumor Growth [3, 5]: 40%
% Decrease in Tumor Weight [3, 5]: 33%
% Decrease in Tumor Growth [3, 6]: 47%
Avg Tumor Growth [3, 6]: 550 ± 150 mm^3
% Decrease in Tumor Growth [3, 7]: 60%
Avg Tumor Growth [3, 7]: 413 ± 208 mm^3
Anti-tumor activity in the PC3 mouse tumor model (in words) ([3]; as compared to the control constructs): especially marked anti-tumor activity
